From patent publication US20220324835A1 (Nurix Therapeutics, Inc., priority 2018, published 2022)

What was measured:
Cbl-b [1] = target: T1, Cbl-b (Homo sapiens, UniProt Q13191); test: Cbl-b inhibition assay (Cbl-b activity assay, FRET, Biological Example 1; 100 mM NaCl, 60 nM Src kinase); assay type: biochemical; details: upper bound stated in text lists; read-out: IC50 values in the Cbl-b inhibition assay of Biological Example 1
How it was run: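 FRET read-out: loss of signal marks inhibition. Mix = biotin-Avi-Cbl-b (N-term), Src kinase, UbcH5B-Ub(Bodipy-FL, irreversible conjugate), streptavidin-Tb, assay buffer.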

T-cell [2] = test: IL-2 secretion from T-cells co-stimulated with anti-CD3 and anti-CD28 antibody (Biological Example 2); assay type: cell-based, human; details: Homo sapiens, T-cell; for fold induction at 4 µM: 4 μM Cbl-b inhibitor
How it was run: (§1)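 Values are fold-change over baseline: readings (IL-2 release, CD25 staining) from inhibitor-treated T-cells divided against untreated cells […]. No detailed procedure stated.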

T-cell [3] = test: IL-2 secretion from T-cells stimulated with anti-CD3 antibody alone (Biological Example 2); assay type: cell-based, human; details: T-cell; for fold induction at 8 µM: 8 μM Cbl-b inhibitor
T-cell [4] = test: CD25 cell surface staining on T-cells co-stimulated with anti-CD3 and anti-CD28 antibody (Biological Example 2); assay type: cell-based, human; details: Homo sapiens, T-cell; for fold induction at 4 µM: 4 μM Cbl-b inhibitor
How it was run: as §1

T-cell [5] = test: CD25 cell surface staining on T-cells stimulated with anti-CD3 antibody alone (Biological Example 2); assay type: cell-based, human; details: T-cell; for fold induction at 8 µM: 8 μM Cbl-b inhibitor
Cbl-b [6] = target: T1, Cbl-b; test: Cbl-b activity assay (Cbl-b inhibition assay), TR-FRET of Cbl-b interaction with UbcH5B-Ub; assay type: biochemical
How it was run: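 Compound-treated Cbl-b was incubated 1.5 h with Src kinase (60 nM final; 30 nM for asterisked values, which also used 50 mM instead of 100 mM NaCl), 1 mM ATP and 5 mM MgCl2. Binding to fluorescent Ub-loaded UbcH5B (C85K mutant) was then read by TR-FRET after 1 h more.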

[7] = 0.3 μM Cbl-b inhibitor, fold change over baseline (anti-CD3/anti-CD28 stimulated T-cells without inhibitor), read-out: IL-2 secretion Anti-CD3/Anti-CD28 stimulation
[8] = 1 μM Cbl-b inhibitor, fold change over baseline (anti-CD3/anti-CD28 stimulated T-cells without inhibitor), read-out: IL-2 secretion Anti-CD3/Anti-CD28 stimulation
[9] = Homo sapiens, 1 μM Cbl-b inhibitor, fold change over baseline (anti-CD3/anti-CD28 stimulated T-cells without inhibitor), read-out: IL-2 secretion Anti-CD3 stimulation
[10] = 0.3 μM Cbl-b inhibitor, fold change over baseline (anti-CD3/anti-CD28 stimulated T-cells without inhibitor), read-out: CD25 staining Anti-CD3/Anti-CD28 stimulation
[11] = 1 μM Cbl-b inhibitor, fold change over baseline (anti-CD3/anti-CD28 stimulated T-cells without inhibitor), read-out: CD25 staining Anti-CD3/Anti-CD28 stimulation
[12] = Homo sapiens, 1 μM Cbl-b inhibitor, fold change over baseline (anti-CD3/anti-CD28 stimulated T-cells without inhibitor), read-out: CD25 staining Anti-CD3 stimulation
[13] = assay buffer with 100 mM NaCl, 60 nM Src kinase, read-out: Cbl-b activity IC50
[14] = read-out: IL-2 secretion, Anti-CD3/Anti-CD28 stimulation, fold change over baseline
[15] = read-out: CD25 staining, Anti-CD3/Anti-CD28 stimulation, fold change over baseline
[16] = fold change over baseline, 0.3 μM Cbl-b inhibitor, primary human total T-cells, read-out: IL-2 secretion Anti-CD3/Anti-CD28 stimulation
[17] = fold change over baseline, 1 μM Cbl-b inhibitor, primary human total T-cells, read-out: IL-2 secretion Anti-CD3/Anti-CD28 stimulation
[18] = fold change over baseline, primary human total T-cells, read-out: IL-2 secretion Anti-CD3/Anti-CD28 stimulation
[19] = fold change over baseline, 1 μM Cbl-b inhibitor, primary human total T-cells, read-out: IL-2 secretion Anti-CD3 stimulation
[20] = fold change over baseline, primary human total T-cells, read-out: IL-2 secretion Anti-CD3 stimulation
[21] = fold change over baseline, 0.3 μM Cbl-b inhibitor, primary human total T-cells, read-out: CD25 staining Anti-CD3/Anti-CD28 stimulation
[22] = fold change over baseline, 1 μM Cbl-b inhibitor, primary human total T-cells, read-out: CD25 staining Anti-CD3/Anti-CD28 stimulation
[23] = fold change over baseline, primary human total T-cells, read-out: CD25 staining Anti-CD3/Anti-CD28 stimulation
[24] = fold change over baseline, 1 μM Cbl-b inhibitor, primary human total T-cells, read-out: CD25 staining Anti-CD3 stimulation
[25] = fold change over baseline, primary human total T-cells, read-out: CD25 staining Anti-CD3 stimulation

T1 sequence (Q13191 36-427): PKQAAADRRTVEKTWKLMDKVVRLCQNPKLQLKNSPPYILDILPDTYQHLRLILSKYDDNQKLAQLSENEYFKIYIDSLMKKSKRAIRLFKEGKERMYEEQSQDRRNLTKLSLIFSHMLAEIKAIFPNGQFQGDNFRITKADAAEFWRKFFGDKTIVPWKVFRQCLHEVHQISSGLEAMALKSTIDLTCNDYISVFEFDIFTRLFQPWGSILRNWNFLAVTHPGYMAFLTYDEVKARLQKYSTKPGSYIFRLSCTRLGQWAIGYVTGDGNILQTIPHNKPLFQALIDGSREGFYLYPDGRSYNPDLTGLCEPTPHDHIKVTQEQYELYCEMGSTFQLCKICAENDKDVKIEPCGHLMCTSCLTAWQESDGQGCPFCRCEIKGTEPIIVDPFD

SMILES	IC50 (Cbl-b [1])	fold induction at 0.3 µM (T-cell [2]; [7])	fold induction at 1 µM (T-cell [2]; [8])	fold induction at 1 µM (T-cell [3]; [9])	fold induction at 0.3 µM (T-cell [4]; [10])	fold induction at 1 µM (T-cell [4]; [11])	fold induction at 1 µM (T-cell [5]; [12])	IC50 (Cbl-b [6]; [13])	also measured
Cn1cnnc1CC1(c2cccc(N3Cc4c(cc(N5CCC(C(F)F)C5)cc4C(F)(F)F)C3=O)c2)COC1 (stereo not shown) [Example 601, 6-(3-(difluoromethyl)pyrrolidin-1-yl)-2-(3-(3-((4-methyl-4H-1,2,4-triazol-3-yl)methyl)oxetan-3-yl)phenyl)-4-(trifluoromethyl)isoindolin-1-one]	≤ 100 nM	1.01 to 2.5	2.51 to 5	< 0.05	1.01 to 1.3	1.01 to 1.3	0.601 to 0.8	< 0.1 µM	
Cn1cnnc1CC1(c2cccc(N3Cc4c(cc(N5CC6(CCC6(F)F)C5)cc4C(F)(F)F)C3=O)c2)COC1 [Example 603, 6-(5,5-difluoro-2-azaspiro[3.3]heptan-2-yl)-2-(3-(3-((4-methyl-4H-1,2,4-triazol-3-yl)methyl)oxetan-3-yl)phenyl)-4-(trifluoromethyl)isoindolin-1-one]	≤ 100 nM	1.01 to 2.5	2.51 to 5	< 0.05	1.01 to 1.3	1.01 to 1.3	0.601 to 0.8	< 0.1 µM	
Cn1cnnc1CC1(c2cccc(N3Cc4c(cc(CN5CCC(C)(C#N)CC5)cc4C(F)(F)F)C3=O)c2)COC1 [Example 642, 4-methyl-1-((2-(3-(3-((4-methyl-4H-1,2,4-triazol-3-yl)methyl)oxetan-3-yl)phenyl)-3-oxo-7-(trifluoromethyl)isoindolin-5-yl)methyl)piperidine-4-carbonitrile]	≤ 100 nM	> 7.5	> 7.5	0.151 to 0.2	1.31 to 1.5	1.31 to 1.5	> 1	< 0.1 µM	
Cn1cnnc1CC1(c2cccc(N3Cc4c(cc(CN5CC6CC5CO6)cc4C(F)(F)F)C3=O)c2)COC1 (stereo not shown) [Example 619, 6-((2-oxa-5-azabicyclo[2.2.1]heptan-5-yl)methyl)-2-(3-(3-((4-methyl-4H-1,2,4-triazol-3-yl)methyl)oxetan-3-yl)phenyl)-4-(trifluoromethyl)isoindolin-1-one]	≤ 100 nM	2.51 to 5	5 to 7.5	0.051 to 0.1	1.01 to 1.3	1.01 to 1.3	0.801 to 1	< 0.1 µM	
Cc1cc(C(=O)Nc2cccc(C3([C@H](F)c4nncn4C)COC3)c2)nc(C2CC2)n1 [Example 669a, (S)-2-cyclopropyl-N-(3-(3-(fluoro(4-methyl-4H-1,2,4-triazol-3-yl)methyl)oxetan-3-yl)phenyl)-6-methylpyrimidine-4-carboxamide]	≤ 100 nM	2.51 to 5	5 to 7.5	0.151 to 0.2	1.01 to 1.3	1.01 to 1.3	> 1	< 0.1 µM	
Cn1cnnc1CC1(c2cccc(N3Cc4c(cc(CN5C6CCCC5CC6)cc4C(F)(F)F)C3=O)c2)COC1 [Example 556, 6-((8-azabicyclo[3.2.1]octan-8-yl)methyl)-2-(3-(3-((4-methyl-4H-1,2,4-triazol-3-yl)methyl)oxetan-3-yl)phenyl)-4-(trifluoromethyl)isoindolin-1-one]	≤ 100 nM							< 0.1 µM	fold induction at 0.3 µM (T-cell [2]; [14]): > 7.5; fold induction at 1 µM (T-cell [2]; [14]): > 7.5; fold induction at 1 µM (T-cell [3]; Homo sapiens, read-out: IL-2 secretion, Anti-CD3 stimulation, fold change over baseline): > 0.201; fold induction at 0.3 µM (T-cell [4]; [15]): > 1.76; fold induction at 1 µM (T-cell [4]; [15]): > 1.76; fold induction at 1 µM (T-cell [5]; Homo sapiens, read-out: CD25 staining, Anti-CD3 stimulation, fold change over baseline): > 1
COC1CCN(Cc2cc3c(c(C(F)(F)F)c2)CN(c2cccc(C4(Cc5nncn5C)COC4)c2)C3=O)CC1 [Example 632, 6-((4-methoxypiperidin-1-yl)methyl)-2-(3-(3-((4-methyl-4H-1,2,4-triazol-3-yl)methyl)oxetan-3-yl)phenyl)-4-(trifluoromethyl)isoindolin-1-one]	≤ 100 nM	> 7.5	> 7.5	> 0.201	1.31 to 1.5	1.51 to 1.75	> 1	< 0.1 µM	
Cc1cc(C(=O)Nc2cccc(C3(Cc4nncn4C)COC3)c2)nc(C2CC2)c1 [Compound 339, 6-cyclopropyl-4-methyl-N-(3-(3-((4-methyl-4H-1,2,4-triazol-3-yl)methyl)oxetan-3-yl)phenyl)picolinamide]	≤ 100 nM							< 0.1 µM	fold induction at 0.3 µM (T-cell [2]; [16]): 5 to 7.5; fold induction at 1 µM (T-cell [2]; [17]): > 7.5; fold induction at 4 µM (T-cell [2]; [18]): > 7.5; fold induction at 1 µM (T-cell [3]; [19]): > 0.201; fold induction at 8 µM (T-cell [3]; [20]): > 0.201; fold induction at 0.3 µM (T-cell [4]; [21]): 1.31 to 1.5; fold induction at 1 µM (T-cell [4]; [22]): 1.31 to 1.5; fold induction at 4 µM (T-cell [4]; [23]): 1.51 to 1.75; fold induction at 1 µM (T-cell [5]; [24]): > 1; fold induction at 8 µM (T-cell [5]; [25]): > 1
Cn1cnnc1[C@@H](F)C1(c2cccc(N3Cc4c(cc(CN5C6CCCC5CC6)cc4C(F)(F)F)C3=O)c2)COC1 [Example 675a, 6-((8-azabicyclo[3.2.1]octan-8-yl)methyl)-2-(3-(3-((S)-fluoro(4-methyl-4H-1,2,4-triazol-3-yl)methyl)oxetan-3-yl)phenyl)-4-(trifluoromethyl)isoindolin-1-one]	≤ 100 nM	2.51 to 5	5 to 7.5	0.101 to 0.15	1.01 to 1.3	1.31 to 1.5	> 1	< 0.1 µM	
Cc1cc(C(=O)Nc2cccc(C3([C@@H](F)c4nncn4C)COC3)c2)nc(C2CC2)n1 [Example 669b, (R)-2-cyclopropyl-N-(3-(3-(fluoro(4-methyl-4H-1,2,4-triazol-3-yl)methyl)oxetan-3-yl)phenyl)-6-methylpyrimidine-4-carboxamide]	≤ 100 nM	2.51 to 5	> 7.5	> 0.201	1.01 to 1.3	1.31 to 1.5	> 1	< 0.1 µM	
Cc1nc(C(=O)Nc2cccc([C@H](C)Sc3nncn3C)c2)ccc1Cl [Compound 39, (S)-5-Chloro-6-methyl-N-(3-(1-((4-methyl-4H-1,2,4-triazol-3-yl)thio)ethyl)phenyl)picolinamide]	≤ 500 nM							0.1 to 0.3 µM	fold induction at 0.3 µM (T-cell [2]; [16]): 2.51 to 5; fold induction at 1 µM (T-cell [2]; [17]): 5 to 7.5; fold induction at 4 µM (T-cell [2]; [18]): > 7.5; fold induction at 1 µM (T-cell [3]; [19]): < 0.05; fold induction at 8 µM (T-cell [3]; [20]): 0.051 to 0.1; fold induction at 0.3 µM (T-cell [4]; [21]): < 1; fold induction at 1 µM (T-cell [4]; [22]): 1.01 to 1.3; fold induction at 4 µM (T-cell [4]; [23]): 1.01 to 1.3; fold induction at 1 µM (T-cell [5]; [24]): < 0.6; fold induction at 8 µM (T-cell [5]; [25]): 0.801 to 1; IC50 (Cbl-b [6]; * assay buffer containing 50 mM NaCl instead of 100 mM NaCl and 30 nM Src kinase instead of 60 nM, read-out: Cbl-b activity IC50 (μM)*): 0.301 to 1 µM
